# Experimental data as given in article PMC8426238, “Synthesis and preclinical evaluation of [^11C]MTP38 as a novel PET ligand for phosphodiesterase 7 in the brain” (European Journal of Nuclear Medicine and Molecular Imaging, 2021).
# Values joined by “and” are separate entries in the source; they are usually repeats but may differ in a detail not shown here. Equal entries are not always repeated.
# Columns and labels:
# PDE11A4 = molecular target: T1, PDE11A4 (Homo sapiens, UniProt Q9HCR9); assay: PDE isozyme inhibition screen panel (Eurofins Panlabs); format: biochemical; details: 1 μM of MTP38; human recombinant; read-out: Percent inhibition
# T1 construct: purchased Eurofins Panlabs Discovery Services (Taiwan)
# Experimental: (§1) In vitro inhibitory effects of MTP38 on 12 PDE isozymes (PDE1A, 2A, 3A, 4B1, 5A, 6, 7A, 7B, 8A1, 9A2, 10A2, and 11A4) were determined using a commercial screen panel at Eurofins Panlabs Discovery Services (Taiwan). The enzyme source was bovine retinal rod outer segments for PDE6 or human recombinants for the others. The inhibition percentage at 1 μM or half-maximal inhibitory concentration (IC50) value was calculated. All assays were conducted in duplicate. For IC50 determination, three independent runs were performed.
# PDE1A = molecular target: T2, PDE1A (Homo sapiens, UniProt P54750); assay: as above; format: biochemical; details: 1 μM of MTP38; human recombinant; read-out: Percent inhibition
# T2 construct: purchased Eurofins Panlabs Discovery Services (Taiwan)
# Experimental: as §1
# PDE2A = molecular target: T3, PDE2A (Homo sapiens, UniProt O00408); assay: as above; format: biochemical; details: human recombinant; geometric mean of three independent experiments
# T3 construct: purchased Eurofins Panlabs Discovery Services (Taiwan)
# Experimental: as §1
# PDE3A = molecular target: T4, PDE3A (Homo sapiens, UniProt Q14432); assay: as above; format: biochemical; details: 1 μM of MTP38; human recombinant; read-out: Percent inhibition
# T4 construct: purchased Eurofins Panlabs Discovery Services (Taiwan)
# Experimental: as §1
# PDE5A = molecular target: T5, PDE5A (Homo sapiens, UniProt O76074); assay: as above; format: biochemical; details: 1 μM of MTP38; human recombinant; read-out: Percent inhibition
# T5 construct: purchased Eurofins Panlabs Discovery Services (Taiwan)
# Experimental: as §1
# PDE6 = molecular target: T6, PDE6 (Bos taurus, UniProt P11541+P23439); assay: as above; format: biochemical; details: 1 μM of MTP38; bovine retinal rod outer segments; read-out: Percent inhibition
# T6 construct: The enzyme source was bovine retinal rod outer segments for PDE6; tissue Eurofins Panlabs Discovery Services (Taiwan); host or cells: bovine retinal rod outer segments
# Experimental: as §1
# PDE7A = molecular target: T7, PDE7A (Homo sapiens, UniProt Q13946); assay: as above; format: biochemical; details: human recombinant; geometric mean of three independent experiments
# T7 construct: purchased Eurofins Panlabs Discovery Services (Taiwan)
# Experimental: as §1
# PDE7B = molecular target: T8, PDE7B (Homo sapiens, UniProt Q9NP56); assay: as above; format: biochemical
# T8 construct: purchased Eurofins Panlabs Discovery Services (Taiwan)
# Experimental: as §1
# PDE8A1 = molecular target: T9, PDE8A1 (Homo sapiens, UniProt O60658); assay: as above; format: biochemical; details: 1 μM of MTP38; human recombinant; read-out: Percent inhibition
# T9 construct: purchased Eurofins Panlabs Discovery Services (Taiwan)
# Experimental: as §1
# PDE9A2 = molecular target: T10, PDE9A2 (Homo sapiens, UniProt O76083); assay: as above; format: biochemical; details: 1 μM of MTP38; human recombinant; read-out: Percent inhibition
# T10 construct: purchased Eurofins Panlabs Discovery Services (Taiwan)
# Experimental: as §1
# Adrenergic α2A = molecular target: T11, Adrenergic α2A (Homo sapiens, UniProt P08913); assay: off-target screen panel; format: binding; details: Human recombinant, [^3H]Rauwolscine
# T11 construct: purchased Eurofins Panlabs Discovery Services (Taiwan)
# Dopamine D1 = molecular target: T12, Dopamine D1 (Homo sapiens, UniProt P21728); assay: off-target screen panel; format: binding; details: Human recombinant, [^3H]SCH-23390
# T12 construct: purchased Eurofins Panlabs Discovery Services (Taiwan)
# [1] = molecular target: T13, Epidermal Growth Factor (EGF) (Homo sapiens, UniProt P00533); assay: off-target screen panel; format: binding; details: Human A431 cells, [^125I]EGF
# T13 construct: purchased Eurofins Panlabs Discovery Services (Taiwan)
# Estrogen ERα = molecular target: T14, Estrogen ERα (Homo sapiens, UniProt P03372); assay: off-target screen panel; format: binding; details: Human recombinant, [^3H]Estradiol
# T14 construct: purchased Eurofins Panlabs Discovery Services (Taiwan)
# [2] = system: GABAA, Flunitrazepam, Central; assay: off-target screen panel; format: binding; details: Rat brain (minus cerebellum), [^3H]Flunitrazepam
# Glutamate, Kainate = assay: off-target screen panel; format: binding; details: Rat brain cortex, [^3H]Kainic acid
# Melatonin MT1 = molecular target: T15, Melatonin MT1 (Homo sapiens, UniProt P48039); assay: off-target screen panel; format: binding; details: Human recombinant, [^125I]2-Iodomelatonin
# T15 construct: purchased Eurofins Panlabs Discovery Services (Taiwan)
# Muscarinic M2 = molecular target: T16, Muscarinic M2 (Homo sapiens, UniProt P08172); assay: off-target screen panel; format: binding; details: Human recombinant, [^3H]N-Methylscopolamine
# T16 construct: purchased Eurofins Panlabs Discovery Services (Taiwan)
# [3] = molecular target: T17, Nicotinic Acetylcholine α1, Bungarotoxin (Homo sapiens, UniProt P02708+P07510+Q07001); assay: off-target screen panel; format: binding; details: read-out: Inhibition (%) at 1 μM
# T17 construct: purchased Eurofins Panlabs Discovery Services (Taiwan)
# hERG potassium channel = molecular target: T18, hERG potassium channel (Homo sapiens, UniProt Q12809); assay: off-target screen panel; format: binding; details: human recombinant hERG potassium channel, probe [^3H]Astemizole
# T18 construct: purchased Eurofins Panlabs Discovery Services (Taiwan)
# Purinergic P2X = assay: off-target screen panel; format: binding; details: Rabbit urinary bladder, [^3H]α, β-Methylene-ATP
# Sodium Channel, Site 2 = assay: off-target screen panel; format: binding; details: Rat brain, [^3H]Batrachotoxinin
# [4] = molecular target: T19, Transporter, Dopamine (DAT) (Homo sapiens, UniProt Q01959); assay: off-target screen panel; format: binding; details: Human recombinant, [^125I]RTI-55
# T19 construct: purchased Eurofins Panlabs Discovery Services (Taiwan)
# PDE7 = assay: PET imaging in rats with [^11C]MTP38; format: in vivo, Wistar rats; details: unlabeled MTP38 0.5 mg/kg intravenously 2 min before radioligand
# Experimental: Each rat was scanned multiple times with a shortest interval of 1 month. Rats were anesthetized with isoflurane (3% for induction and 2% for maintenance) throughout the experiment. The tail vein was cannulated for radioligand injection. Body temperature was maintained at around 37 °C using a heating pad. The head of the rat was fixed at the center of the field of view of an animal PET scanner (microPET Focus220, Siemens Medical Solutions, Malvern, USA). A 90-min list-mode data acquisition was started simultaneously with intravenous administration of [^11C]MTP38. The list-mode data were sorted into 3D sinograms, which were then Fourier-rebinned into 2D sinograms (frames: 10 s × 6, 30 s × 8, 1 min × 5, 2 min × 10, and 5 min × 12). The sinograms were reconstructed with a filtered back-projection algorithm using a Hanning filter with a cut-off at the Nyquist frequency (0.5 mm^−1).
# Along with baseline scans, we conducted blockade PET experiments according to the following pretreatment protocols: (1) unlabeled MTP38 (0.5 mg/kg) was administered intravenously at 2 min before radioligand injection, and (2) MTP-X (100 mg/kg) was administered orally at 1 h before radioligand injection.
# PET images were co-registered manually onto the magnetic resonance (MR) template image. Details of co-registration were described elsewhere. Regions of interest (ROIs) were placed on the striatum as a target region and on the cerebellum (gray matter) as a reference region according to the expression of PDE7B mRNA in the rat brain [6], and time-activity curves (TACs) were generated for each ROI. Radioactivity in the brain was normalized with injected radioactivity and body weight, and expressed as standardized uptake value (SUV). Then the SUV ratio between the striatum and cerebellum was obtained to estimate the radioligand binding in the target region in baseline and blockade experiments.
# Solubility = format: physicochemical
# T3 sequence (O00408 whole entry): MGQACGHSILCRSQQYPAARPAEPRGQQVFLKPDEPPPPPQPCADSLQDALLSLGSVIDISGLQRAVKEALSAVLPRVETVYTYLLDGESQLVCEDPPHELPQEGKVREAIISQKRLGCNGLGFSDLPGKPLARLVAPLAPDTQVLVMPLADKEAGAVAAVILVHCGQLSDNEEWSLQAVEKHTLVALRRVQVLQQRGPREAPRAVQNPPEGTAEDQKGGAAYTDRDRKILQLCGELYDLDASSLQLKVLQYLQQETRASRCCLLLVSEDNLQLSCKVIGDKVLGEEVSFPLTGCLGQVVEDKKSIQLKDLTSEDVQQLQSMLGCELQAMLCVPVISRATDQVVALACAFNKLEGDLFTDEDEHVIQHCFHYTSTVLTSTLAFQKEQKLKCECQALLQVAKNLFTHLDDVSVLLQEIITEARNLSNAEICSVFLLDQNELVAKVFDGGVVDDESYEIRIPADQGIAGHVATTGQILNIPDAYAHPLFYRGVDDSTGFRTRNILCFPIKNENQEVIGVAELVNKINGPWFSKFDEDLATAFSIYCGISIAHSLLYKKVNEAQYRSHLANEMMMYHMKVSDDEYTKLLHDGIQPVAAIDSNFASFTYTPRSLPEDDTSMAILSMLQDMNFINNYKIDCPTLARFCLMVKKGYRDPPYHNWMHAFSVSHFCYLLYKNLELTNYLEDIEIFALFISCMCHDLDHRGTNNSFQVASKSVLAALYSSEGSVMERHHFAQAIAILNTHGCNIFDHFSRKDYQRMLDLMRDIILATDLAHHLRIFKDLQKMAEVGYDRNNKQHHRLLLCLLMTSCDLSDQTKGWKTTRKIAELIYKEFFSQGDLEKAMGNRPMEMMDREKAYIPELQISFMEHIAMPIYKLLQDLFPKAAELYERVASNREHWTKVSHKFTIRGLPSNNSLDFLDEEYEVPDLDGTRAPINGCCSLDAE
# T8 sequence (Q9NP56 whole entry): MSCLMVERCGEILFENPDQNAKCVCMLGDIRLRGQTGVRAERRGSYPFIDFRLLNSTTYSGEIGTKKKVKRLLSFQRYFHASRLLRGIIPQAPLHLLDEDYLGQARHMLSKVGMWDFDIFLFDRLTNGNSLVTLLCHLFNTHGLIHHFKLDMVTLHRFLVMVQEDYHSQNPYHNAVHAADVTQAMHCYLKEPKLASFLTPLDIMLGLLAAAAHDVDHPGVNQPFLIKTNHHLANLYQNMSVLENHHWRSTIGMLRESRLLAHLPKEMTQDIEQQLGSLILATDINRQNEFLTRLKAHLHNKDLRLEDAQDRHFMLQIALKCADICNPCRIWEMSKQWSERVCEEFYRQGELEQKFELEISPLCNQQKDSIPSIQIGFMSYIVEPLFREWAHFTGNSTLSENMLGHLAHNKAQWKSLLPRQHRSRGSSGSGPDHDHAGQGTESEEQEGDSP
# T17 sequence (Q07001 22-517): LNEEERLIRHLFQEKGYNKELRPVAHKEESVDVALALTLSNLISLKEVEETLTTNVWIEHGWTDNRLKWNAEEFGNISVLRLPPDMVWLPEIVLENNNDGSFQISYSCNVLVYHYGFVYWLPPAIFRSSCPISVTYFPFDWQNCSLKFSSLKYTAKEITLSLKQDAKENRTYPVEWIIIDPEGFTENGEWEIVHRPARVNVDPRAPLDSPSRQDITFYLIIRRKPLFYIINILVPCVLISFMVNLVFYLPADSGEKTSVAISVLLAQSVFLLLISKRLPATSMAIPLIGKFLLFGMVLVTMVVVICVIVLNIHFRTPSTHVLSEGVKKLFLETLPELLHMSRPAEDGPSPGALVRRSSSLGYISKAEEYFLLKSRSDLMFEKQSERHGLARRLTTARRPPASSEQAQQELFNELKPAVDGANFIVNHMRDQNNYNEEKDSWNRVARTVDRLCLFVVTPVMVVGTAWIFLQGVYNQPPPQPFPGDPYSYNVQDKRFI
# T17 sequence (P02708 21-457): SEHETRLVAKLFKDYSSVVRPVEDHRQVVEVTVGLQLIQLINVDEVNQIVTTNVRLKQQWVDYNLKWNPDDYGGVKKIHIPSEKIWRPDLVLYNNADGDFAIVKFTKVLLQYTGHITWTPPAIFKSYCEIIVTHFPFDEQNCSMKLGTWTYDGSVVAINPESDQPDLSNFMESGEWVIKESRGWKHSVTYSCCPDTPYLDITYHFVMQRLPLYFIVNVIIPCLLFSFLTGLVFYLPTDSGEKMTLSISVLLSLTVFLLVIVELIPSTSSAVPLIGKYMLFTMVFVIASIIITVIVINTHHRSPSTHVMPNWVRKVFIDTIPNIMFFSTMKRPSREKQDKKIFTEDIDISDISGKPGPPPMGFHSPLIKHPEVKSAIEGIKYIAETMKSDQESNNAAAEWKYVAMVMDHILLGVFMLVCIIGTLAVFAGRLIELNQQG
# T17 sequence (P07510 23-517): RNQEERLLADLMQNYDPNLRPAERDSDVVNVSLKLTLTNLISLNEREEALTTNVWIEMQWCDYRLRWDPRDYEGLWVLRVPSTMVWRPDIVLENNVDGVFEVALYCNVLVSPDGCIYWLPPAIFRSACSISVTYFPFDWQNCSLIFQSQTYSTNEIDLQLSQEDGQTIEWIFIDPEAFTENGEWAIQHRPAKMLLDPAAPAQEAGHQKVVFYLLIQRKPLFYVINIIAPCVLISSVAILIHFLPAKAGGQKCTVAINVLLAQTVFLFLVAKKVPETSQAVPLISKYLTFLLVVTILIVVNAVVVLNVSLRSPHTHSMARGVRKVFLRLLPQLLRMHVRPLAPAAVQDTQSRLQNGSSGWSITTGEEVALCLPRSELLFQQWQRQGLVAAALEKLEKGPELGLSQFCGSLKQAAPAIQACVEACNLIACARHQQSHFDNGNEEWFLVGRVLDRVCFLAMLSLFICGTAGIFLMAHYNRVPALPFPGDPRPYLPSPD
# T17 sequence (P11230 24-501, further chain): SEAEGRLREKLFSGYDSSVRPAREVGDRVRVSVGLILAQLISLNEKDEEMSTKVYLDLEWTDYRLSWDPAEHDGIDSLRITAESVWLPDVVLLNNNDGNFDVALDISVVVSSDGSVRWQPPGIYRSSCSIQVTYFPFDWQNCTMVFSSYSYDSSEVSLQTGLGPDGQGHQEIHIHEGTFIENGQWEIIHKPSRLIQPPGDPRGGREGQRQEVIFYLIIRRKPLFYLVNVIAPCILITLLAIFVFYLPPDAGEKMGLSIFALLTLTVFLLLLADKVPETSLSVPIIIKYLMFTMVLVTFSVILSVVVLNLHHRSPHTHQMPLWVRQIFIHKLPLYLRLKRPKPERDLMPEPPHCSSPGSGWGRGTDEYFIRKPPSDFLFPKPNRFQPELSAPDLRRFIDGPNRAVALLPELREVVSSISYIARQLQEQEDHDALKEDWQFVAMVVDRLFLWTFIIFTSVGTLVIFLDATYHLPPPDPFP
# T2 sequence (P54750 whole entry): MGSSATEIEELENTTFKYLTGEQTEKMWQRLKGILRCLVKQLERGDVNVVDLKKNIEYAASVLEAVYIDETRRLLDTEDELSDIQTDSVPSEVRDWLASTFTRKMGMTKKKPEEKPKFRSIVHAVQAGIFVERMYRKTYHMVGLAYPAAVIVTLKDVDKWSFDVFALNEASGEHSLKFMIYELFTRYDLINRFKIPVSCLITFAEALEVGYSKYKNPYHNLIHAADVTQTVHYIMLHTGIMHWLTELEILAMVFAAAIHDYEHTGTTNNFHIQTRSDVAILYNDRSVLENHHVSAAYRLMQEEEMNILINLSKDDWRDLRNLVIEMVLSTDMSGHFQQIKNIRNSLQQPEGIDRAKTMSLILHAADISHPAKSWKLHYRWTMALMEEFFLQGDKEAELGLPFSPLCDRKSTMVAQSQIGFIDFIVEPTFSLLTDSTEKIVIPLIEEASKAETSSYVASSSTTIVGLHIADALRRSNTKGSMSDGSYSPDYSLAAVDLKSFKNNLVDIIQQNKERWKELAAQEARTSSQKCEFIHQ
# T19 sequence (Q01959 whole entry): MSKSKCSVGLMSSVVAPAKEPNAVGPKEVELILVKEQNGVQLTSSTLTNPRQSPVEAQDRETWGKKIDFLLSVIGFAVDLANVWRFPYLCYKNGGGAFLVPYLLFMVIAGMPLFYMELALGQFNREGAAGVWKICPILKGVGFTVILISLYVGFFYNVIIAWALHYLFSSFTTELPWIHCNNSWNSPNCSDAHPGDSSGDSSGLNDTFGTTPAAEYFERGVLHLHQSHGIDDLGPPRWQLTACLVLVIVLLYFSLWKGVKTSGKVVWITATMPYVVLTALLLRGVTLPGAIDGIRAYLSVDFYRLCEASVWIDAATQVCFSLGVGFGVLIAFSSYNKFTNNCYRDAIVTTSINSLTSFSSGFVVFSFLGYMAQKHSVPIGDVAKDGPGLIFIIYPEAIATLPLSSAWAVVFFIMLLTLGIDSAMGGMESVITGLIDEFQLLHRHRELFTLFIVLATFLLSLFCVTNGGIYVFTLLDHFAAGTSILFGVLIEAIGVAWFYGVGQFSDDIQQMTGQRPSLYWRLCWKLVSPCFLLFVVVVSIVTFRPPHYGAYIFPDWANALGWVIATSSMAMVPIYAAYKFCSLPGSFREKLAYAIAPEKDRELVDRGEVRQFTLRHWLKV
# T7 sequence (Q13946 whole entry): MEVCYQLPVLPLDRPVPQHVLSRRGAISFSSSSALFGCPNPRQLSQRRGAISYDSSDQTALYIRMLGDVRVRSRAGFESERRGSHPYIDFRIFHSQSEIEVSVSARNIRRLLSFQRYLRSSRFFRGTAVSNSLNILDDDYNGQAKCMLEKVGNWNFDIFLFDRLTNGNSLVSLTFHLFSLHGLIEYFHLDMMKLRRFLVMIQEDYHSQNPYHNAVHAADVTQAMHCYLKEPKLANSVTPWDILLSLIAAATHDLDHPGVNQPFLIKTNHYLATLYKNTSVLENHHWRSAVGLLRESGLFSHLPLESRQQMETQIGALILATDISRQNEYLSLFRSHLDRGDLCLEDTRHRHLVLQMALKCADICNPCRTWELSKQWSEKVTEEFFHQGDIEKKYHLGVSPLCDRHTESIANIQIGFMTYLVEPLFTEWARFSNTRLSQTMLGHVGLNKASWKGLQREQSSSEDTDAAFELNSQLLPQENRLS
structure (smiles),measurement,setting,value
"C[C@@H]1CC[C@H](C)N(c2nnc3c(N)ncc(C#N)n23)C1 (relative stereo) [MTP38, 8-amino-3-(2S*,5R*-dimethyl-1-piperidyl)-[1,2,4]triazolo[4,3-a]pyrazine-5-carbonitrile]",inhibition at 1 µM,PDE11A4,< 50%
same,inhibition at 1 µM,PDE1A,< 50%
same,IC50,PDE2A,> 100 nM and 114 nM
same,inhibition at 1 µM,PDE3A,< 50%
same,inhibition at 1 µM,PDE5A,< 50%
same,inhibition at 1 µM,PDE6,< 50%
same,IC50,PDE7A,9.81 nM
same,Ki,"PDE7B; from IC50 1.21 nM, [S] 100 nM, Km 30–70 nM, read-out: Ki estimated by Cheng-Prusoff equation",0.28 to 0.5 nM
same,IC50,"PDE7B; human recombinant, geometric mean of three independent experiments",1.21 nM
same,inhibition at 1 µM,PDE8A1,< 50%
same,inhibition at 1 µM,PDE9A2,< 50%
same,inhibition at 1 µM,Adrenergic α2A,4%
same,inhibition at 1 µM,Dopamine D1,-14%
same,inhibition at 1 µM,[1],1%
same,inhibition at 1 µM,Estrogen ERα,-1%
same,Inhibition (%) at 1 μM,[2],-2%
same,Inhibition (%) at 1 μM,"Glutamate, Kainate",-2%
same,inhibition at 1 µM,Melatonin MT1,7%
same,inhibition at 1 µM,Muscarinic M2,-9%
same,inhibition at 1 µM,[3],15%
same,inhibition at 1 µM,hERG potassium channel,17%
same,Inhibition (%) at 1 μM,Purinergic P2X,-3%
same,Inhibition (%) at 1 μM,"Sodium Channel, Site 2",1%
same,inhibition at 1 µM,[4],22%
same,striatum-to-cerebellum ratio of SUV of [^11C]MTP38 after pretreatment,PDE7,around 1.1
same,solubility,Solubility,low solubility
